From US20190134033A1, “PHARMACEUTICAL COMBINATIONS” (Novartis AG, priority 2013, published 2019)

What was measured:
[1] = system: TRP-590A-SHSY5Y-XEF (ALK F1174L mutated); assay: SY5Y Xenograft, LDK378 and CGM097 alone and combined (FIG. 6); type: in vivo
[2] = system: p53; assay: Induction of p53 and its downstream target genes in ALK mutant and p53 WT neuroblastoma cell lines; type: cell-based
Protocol: (§1) Compound stocks of LDK378 (compound B) and NVP-CGM097 (compound A) are prepared in DMSO at a final concentration of 10 mM. Working stocks of compound A and compound B are serially diluted in the appropriate cell culture medium to achieve final assay concentrations ranging from 10 μM to 0.039 μM.
(§2) ALK+NB neuroblastoma cell line is disclosed in G. Barone, et al in the journal Clin. Cancer Res., Vol 19, pp 5814-5821 (2013).

[3] = system: NB-1 neuroblastoma xenograft; assay: NB-1 neuroblastoma in vivo xenograft model, LDK378 and Compound C alone and combined (Example 2, FIG. 8); conditions: NB1 model, PO QD, LDK378 50 mg/kg, Compound C 20 mg/kg
Protocol: The combination of LDK378 (Compound B) and HDM-2/p53 inhibitor (S)-5-(5-Chloro-1-methyl-2-oxo-1,2-dihydro-pyridin-3-yl)-6-(4-chloro-phenyl)-2-(2,4- dimethoxy-pyrimidin-5-yl)-1-isopropyl-5,6-dihydro-1H-pyrrolo[3,4-d]imidazol-4-one (Compound C) were tested in NB-1 neuroblastoma in vivo xenograft model. A total of 5 animals per group were enrolled in efficacy study. For single-agent and combination studies, animals were dosed via oral gavage for both LDK378 and Compound C. LDK378 was formulated in 0.5% CMC/0.5% Tween 80, and Compound C was formulated in Methylcellulose 0.5% w/V in pH 6.8 50 mM phosphate buffer at 20 mg/kg as free base. For NB1 model, the tumors reached approximately 200 mm^3 at day 16 post implantation. On Day 16, tumor-bearing mice were randomized into treatment groups.
Animals were weighed at dosing day(s) and dose was body weight adjusted, dosing volume was 10 ml/kg. Tumor dimensions and body weights were collected at the time of randomization and twice weekly thereafter for the study duration. The following data was provided after each day of data collection: incidence of mortality, individual and group average body weights, and individual and group average tumor volume.

[4] = system: NB-1 Xenograft; assay: NB-1 Xenograft, LDK378 single agent and combinations with CGM097 and LEE011 (FIG. 5, FIG. 7); type: in vivo
Description: FIG. 5 summarizes data for treatments with LDK378 (ALK inhibitor) and CGM097 (HDM-2/P53 Inhibitor) as single agents and in combination in a NB-1 Xenograft.
FIG. 7 summarizes data for LDK378 Single Agent and Combination Treatments with NVP-CGM097 in a NB-1 Xenograft. […] After treatment termination, tumors resumed growth.

[5] = system: ALK; assay: ALK phosphorylation in ALK mutant and p53 WT neuroblastoma cell lines; type: cell-based
Protocol: as §1, §2

SMILES	tumor growth under continuous treatment [1]	induction of p53 and its downstream target genes [2]	T/C % on day 25 [3]	T/C % on day 25 ([3]; listed as COMPOUND C)	tumor growth under continuous treatment [4]	ALK phosphorylation [5]
COc1cc2c(cc1OC(C)C)[C@H](c1ccc(Cl)cc1)N(c1ccc(N(C)C[C@H]3CC[C@H](N4CCN(C)C(=O)C4)CC3)cc1)C(=O)C2 [CGM097, (S)-1-(4-Chloro-phenyl)-7-isopropoxy-6-methoxy-2-(4-{methyl-[4-(4-methyl-3-oxo-piperazin-1-yl)-trans-cyclohexylmethyl]-amino}-phenyl)-1,4-dihydro-2H-isoquinolin-3-one]	continued to grow	caused induction of p53 and its downstream target genes				
COc1ncc(-c2nc3c(n2C(C)C)[C@H](c2ccc(Cl)cc2)N(c2cc(Cl)cn(C)c2=O)C3=O)c(OC)n1 [Compound C, (S)-5-(5-Chloro-1-methyl-2-oxo-1,2-dihydro-pyridin-3-yl)-6-(4-chloro-phenyl)-2-(2,4-dimethoxy-pyrimidin-5-yl)-1-isopropyl-5,6-dihydro-1H-pyrrolo[3,4-d]imidazol-4-one]			50.8%	50.80%		
Cc1cc(Nc2ncc(Cl)c(Nc3ccccc3S(=O)(=O)C(C)C)n2)c(OC(C)C)cc1C1CCNCC1 [LDK378, 5-chloro-N2-(2-isopropoxy-5-methyl-4-(piperidin-4-yl)phenyl)-N4-[2-(propane-2-sulfonyl)-phenyl]-pyrimidine-2,4-diamine]	continued to grow		27.6%		resumed growth before day 41	inhibited ALK phosphorylation
